# Measurements published in patent US8232283B2, “Raf inhibitors” (Forma Therapeutics, Inc., priority 2008, dated 2012).
# Assays:
# [1] = tested on: HT-29 [B-Raf V600E mutant]; test: Anti-proliferative activity, SRB assay, 72 hours; format: cell-based; settings: Homo sapiens, read-out: CELLULAR IC50 [μM] HT-29 [B-Raf V600E mutant]
# Experimental: We observed the surprising finding that compounds of the invention were useful in inhibiting proliferation of HT-29 tumor cells (see Table 3).
# (§1) Cells were exposed to the test compounds at various concentrations appropriate to determine an IC50, for 72 hours, and cell proliferation was measured using the SRB assay according to Shekan et al (J Natl Cancer Inst (1990) 82, 1107-112) in order to estimate the IC50 values shown in Table 3.
# (§2) Briefly, cells were plated in 96 well dishes 24 hours prior to compound addition at the densities specified in Table 11.1.
# (§3) The assay was terminated with the addition of ice cold 10% TCA after growth medium has been removed and the plates were incubated over night at 4° C. The plates were then washed 5 times with water and 100 μl of a Sulforhodamine B solution ([…]) was added to each well. The plates were then incubated for 10 minutes at room temperature before removal of unbound dye by washing with 1% acetic acid. The bound dye was solubilized with 10 mM Trizma base and the absorbance read at OD520.
# (§4) Inhibitory activity of the compounds was calculated as % inhibition of cell proliferation compared to cells treated with the solvent (DMSO).
# [2] = tested on: A-431 [B-Raf wildtype]; test: Anti-proliferative activity, SRB assay, 72 hours; format: cell-based; settings: Homo sapiens, read-out: CELLULAR IC50 [μM] A-431 [B-Raf wildtype]
# Experimental: as §1, §2, §3, §4
IC50 [1] [µM],IC50 [2] [µM],Structure (SMILES)
< 5,< 10,"COn1c(=O)c(-c2cc(NC(=O)c3cc(Cl)nc(NCc4ccc(N5CCN(C)CC5)cc4)c3)ccc2Cl)cc2cnc(NCCN(C)C)nc21 [Compound 67, 2-Chloro-N-(4-chloro-3-(2-(2-(dimethylamino)ethylamino)-8-methoxy-7-oxo-7,8-dihydropyrido[2,3-d]pyrimidin-6-yl)phenyl)-6-(4-(4-methylpiperazin-1-yl)-benzylamino)-isonicotinamide]"
< 5,> 10,"COn1c(=O)c(-c2cc(NC(=O)Nc3cccc(C(F)(F)F)c3F)ccc2Cl)cc2cnc(NCCN(C)C)nc21 [Compound 48, 1-{4-Chloro-3-[2-(2-dimethylamino-ethylamino)8-methoxy-7-oxo-7,8-dihydro-pyrido[2,3-d]pyrimidin-6-yl]-phenyl}-3-(2-fluoro-3-trifluoromethyl-phenyl)-urea]"
> 10,> 10,"COn1c(=O)c(-c2cc(NC(=O)c3ccccc3Cl)ccc2Cl)cc2cnc(NCCN(C)C)nc21 [Compound 36, 2-Chloro-N-{4-chloro-3-[2-(2-dimethylamino-ethylamino)-8-methoxy-7-oxo-7,8-dihydro-pyrido[2,3-d]pyrimidin-6-yl]-phenyl}-benzamide]"
< 5,> 10,"COn1c(=O)c(-c2cc(NC(=O)Nc3ccc(Cl)cc3)ccc2Cl)cc2cnc(NCCN(C)C)nc21 [Compound 46, 1-{4-Chloro-3-[2-(2-dimethylamino-ethylamino)-8-methoxy-7-oxo-7,8-dihydro-pyrido[2,3-d]pyrimidin-6-yl]-phenyl}-3-(4-chloro-phenyl)-urea]"
> 10,> 10,"COn1c(=O)c(-c2cc(NC(=O)c3cc(C(C)(C)C)n[nH]3)ccc2Cl)cc2cnc(NCCN(C)C)nc21 [Compound 9, 5-tert-Butyl-2H-pyrazole-3-carboxylic acid {4-chloro-3-[2-(2-dimethylamino-ethylamino)-8-methoxy-7-oxo-7,8-dihydro-pyrido[2,3-d]pyrimidin-6-yl]-phenyl}-amide]"
< 5,> 10,"COn1c(=O)c(-c2cc(NC(=O)c3cc(C(F)(F)F)cc(C(F)(F)F)c3)ccc2Cl)cc2cnc(NCCN(C)C)nc21 [Compound 35, N-{4-Chloro-3-[2-(2-dimethylamino-ethylamino)-8-methoxy-7-oxo-7,8-dihydro-pyrido[2,3-d]pyrimidin-6-yl]-phenyl}-3,5-bis-trifluoromethyl-benzamide]"
< 10,> 10,COn1c(=O)c(-c2cc(NC(=O)c3cc(Cl)nc(NC4CCN(C)CC4)c3)ccc2Cl)cc2cnc(NCCN(C)C)nc21 [Compound 66]
< 5,< 10,"COn1c(=O)c(-c2cc(NC(=O)Nc3ccc(Oc4ccccc4)cc3)ccc2Cl)cc2cnc(NCCN(C)C)nc21 [Compound 45, 1-{4-Chloro-3-[2-(2-dimethylamino-ethylamino)-8-methoxy-7-oxo-7,8-dihydro-pyrido[2,3-d]pyrimidin-6-yl]-phenyl}-3-(4-phenoxy-phenyl)-urea]"
< 10,> 10,"COn1c(=O)c(-c2cc(NC(=O)c3ccc(C(F)(F)F)c(F)c3)ccc2Cl)cc2cnc(NCCN(C)C)nc21 [Compound 12, N-{4-Chloro-3-[2-(2-dimethylamino-ethylamino)-8-methoxy-7-oxo-7,8-dihydro-pyrido[2,3-d]pyrimidin-6-yl]-phenyl}-3-fluoro-4-trifluoromethyl-benzamide]"
< 5,< 10,"COn1c(=O)c(-c2ccc(NC(=O)c3ccc(Cl)c(OC(F)(F)F)c3)cc2Cl)cc2cnc(NCCN(C)C)nc21 [Compound 52, 4-Chloro-N-{3-chloro-4-[2-(2-dimethylamino-ethylamino)-8-methoxy-7-oxo-7,8-dihydro-pyrido[2,3-d]pyrimidin-6-yl]-phenyl}-3-trifluoromethoxy-benzamide]"
> 10,> 10,"COn1c(=O)c(-c2cc(NC(=O)c3ccccc3)ccc2Cl)cc2cnc(NCCN(C)C)nc21 [Compound 33, N-{4-Chloro-3-[2-(2-dimethylamino-ethylamino)-8-methoxy-7-oxo-7,8-dihydro-pyrido[2,3-d]pyrimidin-6-yl]-phenyl}-benzamide]"
< 5,< 10,"COn1c(=O)c(-c2ccc(NC(=O)c3cc(C(C)(C)C)nn3-c3ccccc3)cc2Cl)cc2cnc(NCCN(C)C)nc21 [Compound 56, 5-tert-Butyl-2-phenyl-2H-pyrazole-3-carboxylic acid {3-chloro-4-[2-(2-dimethylamino-ethylamino)-8-methoxy-7-oxo-7,8-dihydro-pyrido[2,3-d]pyrimidin-6-yl]-phenyl}-amide]"
< 5,> 10,"COn1c(=O)c(-c2cc(NC(=O)c3cc(Cl)nc(N(C)C)c3)ccc2Cl)cc2cnc(NCCN(C)C)nc21 [Compound 59, 2-Chloro-N-(4-chloro-3-(2-(2-(dimethylamino)ethylamino)-8-methoxy-7-oxo-7,8-dihydropyrido[2,3-d]pyrimidin-6-yl)phenyl)-6-dimethylamino-isonicotinamide]"
< 5,> 10,"COc1ccc(C(F)(F)F)cc1C(=O)Nc1ccc(Cl)c(-c2cc3cnc(NCCN(C)C)nc3n(OC)c2=O)c1 [Compound 14, N-{4-Chloro-3-[2-(2-dimethylamino-ethylamino)-8-methoxy-7-oxo-7,8-dihydro-pyrido[2,3-d]pyrimidin-6-yl]-phenyl}-2-methoxy-5-trifluoromethyl-benzamide]"
< 5,< 10,"COc1cc(C(F)(F)F)ccc1C(=O)Nc1ccc(-c2cc3cnc(NCCN(C)C)nc3n(OC)c2=O)c(Cl)c1 [Compound 51, N-{3-Chloro-4-[2-(2-dimethylamino-ethylamino)-8-methoxy-7-oxo-7,8-dihydro-pyrido[2,3-d]pyrimidin-6-yl]-phenyl}-2-methoxy-4-trifluoromethyl-benzamide]"
< 5,< 10,"COn1c(=O)c(-c2ccc(NC(=O)c3ccc(OCc4cccc(F)c4)c(Cl)c3)cc2Cl)cc2cnc(NCCN(C)C)nc21 [Compound 55, 3-Chloro-N-{3-chloro-4-[2-(2-dimethylamino-ethylamino)-8-methoxy-7-oxo-7,8-dihydro-pyrido[2,3-d]pyrimidin-6-yl]-phenyl}-4-(3-fluoro-benzyloxy)-benzamide]"
< 5,> 10,"COc1cc(C(F)(F)F)ccc1C(=O)Nc1ccc(Cl)c(-c2cc3cnc(NCCN(C)C)nc3n(OC)c2=O)c1 [Compound 15, N-{4-Chloro-3-[2-(2-dimethylamino-ethylamino)-8-methoxy-7-oxo-7,8-dihydro-pyrido[2,3-d]pyrimidin-6-yl]-phenyl}-2-methoxy-4-trifluoromethyl-benzamide]"
> 10,> 10,"COn1c(=O)c(-c2cc(NC(=O)c3nc4ccc(F)cc4[nH]3)ccc2Cl)cc2cnc(NCCN(C)C)nc21 [Compound 40, 6-Fluoro-1H-benzoimidazole-2-carboxylic acid {4-chloro-3-[2-(2-dimethylamino-ethylamino)-8-methoxy-7-oxo-7,8-dihydro-pyrido[2,3-d]pyrimidin-6-yl]-phenyl}-amide]"
< 10,> 10,"COn1c(=O)c(-c2cc(NC(=O)c3cc4ccccc4n3C)ccc2Cl)cc2cnc(NCCN(C)C)nc21 [Compound 13, 1-Methyl-1H-indole-2-carboxylic acid {4-chloro-3-[2-(2-dimethylamino-ethylamino)-8-methoxy-7-oxo-7,8-dihydro-pyrido[2,3-d]pyrimidin-6-yl]-phenyl}-amide]"
> 10,> 10,"COn1c(=O)c(-c2ccc(NC(=O)c3ccnc(N4CCOCC4)c3)cc2Cl)cc2cnc(NCCN(C)C)nc21 [Compound 54, N-{3-Chloro-4-[2-(2-dimethylamino-ethylamino)-8-methoxy-7-oxo-7,8-dihydro-pyrido[2,3-d]pymidin-6-yl]-phenyl}-2-morpholin-4-yl-isonicotinamide]"
< 10,> 10,"COn1c(=O)c(-c2cc(NC(=O)c3cc(Cl)nc(NCCN(C)C)c3)ccc2Cl)cc2cnc(NCCN(C)C)nc21 [Compound 65, 2-Chloro-N-(4-chloro-3-(2-(2-(dimethylamino)ethylamino)-8-methoxy-7-oxo-7,8-dihydropyrido[2,3-d]pyrirnidin-6-yl)phenyl)-6-(2-dimethylaminoethylamino)-isonicotinamide]"
> 10,> 10,"COn1c(=O)c(-c2ccc(NC(=O)c3ccc(CN4CCN(C)CC4)cc3)cc2Cl)cc2cnc(NCCN(C)C)nc21 [Compound 53, N-{3-Chloro-4-[2-(2-dimethylamino-ethylamino)-8-methoxy-7-oxo-7,8-dihydro-pyrido[2,3-d]pyrimidin-6-yl]-phenyl}-4-(4-methyl-piperazin-1-ylmethyl)-benzamide]"
< 10,> 10,"COn1c(=O)c(-c2cc(NC(=O)c3ccc(C(F)(F)F)cc3)ccc2Cl)cc2cnc(NCCN(C)C)nc21 [Compound 34, N-{4-Chloro-3-[2-(2-dimethylamino-ethylamino)-8-methoxy-7-oxo-7,8-dihydro-pyrido[2,3-d]pyrimidin-6-yl]-phenyl}-4-trifluoromethyl-benzamide]"
